Consider 3 compounds from patent EP1633374B1, “COMPOSITION CONSISTING OF ALKANE DICARBOXYLIC ACIDS AND A PHARMACEUTICALLY ACTIVE INGREDIENT” (Intendis GmbH, priority 2003, dated 2004).

“Also recorded” adds a separate entry of the source.

The assay deals with durch Crotonöl entzündete Maushaut. Briefly: Croton oil-induced inflammation of the mouse ear (irritant contact dermatitis model), leukocyte infiltration of the skin. It is filed as in vivo, Maus. Conditions: for Inhibition [%] der Hautinfiltration * von Granulozyten & Monozyten (Myelo-Peroxidaseaktivität) / Inhibition [%] der Hautinfiltration * von Neutrophilen Elastaseaktivität: Crotonöl challenge, mouse ear skin, topical treatment in Ethanol/Isopropylmyristat, inhibition vs Crotonöl + Vehikel (0 %), 100 % = Vehikel/Vehikel, significance given (n.s. or p<0.05); for therapeutische Effekte im Vergleich zum Vehikel: inflammation model, in Ethanol/Isopropylmyristat, Peroxidase- and Elastase-Aktivität in der Haut, result in words. The source says: Die Induktion einer entzündlichen Reaktion (irritative Kontaktdermatitis) ist ein weit verbreitetes Modell zur pharmakologischen Evaluierung des anti - inflammatorischen Potentials von topisch oder systemisch applizierten Testsubstanzen. (Trancik and Lowe (1985) Evaluation of topical nonsteroidal anti - inflammatory agents, Models in Dermatology, H. Maibach and N.J. Lowe, Basel Karger: 35 - 42) Es hat sich unter anderem bei der Testung von nicht - steroidalen Antiphlogistika sowie bei Glukokortikosteroiden bewährt und gilt als der am besten reproduzierbare in vivo Testversuch für die Evaluierung topischer anti - inflammatorischer Substanzen (Lorenzetti (1975) Animal to Clinical Correlation of Topical Anti - Inflammatory Efficacy, Animal models in dermatology. H. Maibach, Basel Karger: 212 - 224)
Die Induktion einer entzündlichen Reaktion (irritative Kontaktdermatitis) ist ein weit verbreitetes Modell zur pharmakologischen Evaluierung des anti - inflammatorischen Potentials von topisch oder systemisch applizierten Testsubstanzen (Trancik and Lowe (1985) Evaluation of topical nonsteroidal anti - inflammatory agents, Models in Dermatology, H. Maibach and N.J. Lowe. Basel, Karger: 35 - 42). Es hat sich u.a. bei der Testung von nicht - steroidalen Antiphlogistika sowie bei Glukokortikosteroiden bewährt und gilt als der am besten reproduzierbare in vivo Versuch für die Evaluierung topischer anti - inflammatorischer Substanzen (Lorenzetti (1975) Animal to Clinical correlation of Topical Anti - inflammatory Efficacy. Animal models in dermatology. H. Maibach. Basel Karger: 212 - 225).
Die Applikation des Phorbolesters Crotonöl auf Mäuseohren führt zu einer akuten, entzündlichen Reaktion mit Ödem und Einwanderung von vorwiegend polymorphkernigen Granulozyten, die binnen 24h ihr Maximum erreicht. Testsubstanzen können hierbei entweder präventiv (d.h. vor Applikation des entzündlichen Reizes) oder simultan mit Crotonöl appliziert werden. Die Crotonöl - induzierte Entzündung am Mäuseohr ist nicht nur ein Modell der irritativen und/oder allergischen Kontaktdermatitis, sondern auch anderer Hauterkrankungen, die mit einer starken Entzündung und Einwanderung von Granulozyten verbunden sind. Hierzu zählen die Psoriasis, atopische Dermatitis, Akne vulgaris und das entzündliche Stadium der Rosacea.
Erstaunlicher Weise wurde gefunden, dass eine Kombinationstherapie von Metronidazol (0.75%) und Azelainsäure (20%) in Ethanol/Isopropylmyristat im Vergleich zum Vehikel signifikant therapeutisch effektiv waren, wohingegen die beiden Einzelsubstanzen Metronidazol (0.75%) bzw. […] Die Wirksamkeit beinhaltete u.a. die Einwanderung von Leukozyten gemessen als Peroxidase-Aktivität in der Haut sowie die Einwanderung von neutrophilen Granulozyten gemessen als Elastase-Aktivität in der Haut (Tabelle 1).
Die Leukozyteninfiltration in die durch Crotonöl entzündete Maushaut wird durch die kombinierte Behandlung mit Azelainsäure und Metronidazol im Vergleich zu Vehikelbehandlung signifikant inhibiert, wohingegen die einzelnen Wirkstoffe nicht so effektiv waren.

For the compound `C[C@H]1C[C@@H]2[C@H]([C@@H](O)C[C@@]3(C)[C@H]2CC[C@]3(O)C(=O)CO)[C@@]2(C)C=CC(=O)C=C12` [Methylprednisolon], the “Inhibition [%] der Hautinfiltration * von Granulozyten & Monozyten (Myelo-Peroxidaseaktivität)” value is 90 (p<0.05) ^* % and the “Inhibition [%] der Hautinfiltration * von Neutrophilen Elastaseaktivität” value is listed as 95 (p<0.05) ^* %.
With `O=C(O)CCCCCCCC(=O)O` [Azelainsäure (20%), Azelainsäure], the “Inhibition [%] der Hautinfiltration * von Granulozyten & Monozyten (Myelo-Peroxidaseaktivität)” value is recorded as 21 (n.s.) * %; the “Inhibition [%] der Hautinfiltration * von Neutrophilen Elastaseaktivität” value was 11 (n.s.) * %; the “therapeutische Effekte im Vergleich zum Vehikel” value is “keine so hohen, therapeutischen Effekte; also recorded: keine so hohe, therapeutische Effekte”.
For `Cc1ncc([N+](=O)[O-])n1CCO` [Metronidazol (0.75%), 1-(2-hydroxyethyl)-2-methyl-5-nitroimidazol], the “Inhibition [%] der Hautinfiltration * von Granulozyten & Monozyten (Myelo-Peroxidaseaktivität)” value is given as 9 (n.s.) * %; the “Inhibition [%] der Hautinfiltration * von Neutrophilen Elastaseaktivität” value was 18 (n.s.) * %; the “therapeutische Effekte im Vergleich zum Vehikel” value is recorded as “keine so hohen, therapeutischen Effekte; also recorded: keine so hohe, therapeutische Effekte”.
